SMILES strings stand for the structures.

The target in the assay is SMYD3 (Homo sapiens (Human), UniProt Q9H7B4). As to the kind of experiment: SMYD3 biochemical assay (SPA, 3H-SAM methylation of MEKK2 protein substrate). The conditions noted are these: read-out: SMYD3 Biochem IC50 (μM)*. In outline: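 Enzyme: untagged full-length human SMYD3 from E. coli; substrate GST-tagged MEKK2 from insect cells. Buffer 25 mM Tris-Cl pH 8.0, 1 mM TCEP, 0.005% BSG/Tween 20. 30 min compound–enzyme preincubation at RT; 3H-SAM/MEKK2 start; stop with cold SAM (100 uM final); SPA readout in cpm.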
In the case of `C[C@H]1C[C@H](NC(=O)c2cc(C3CC3)on2)CCN1C(=O)C1CCCC(CN)C1` (stereo partly drawn) [compound 372, N-((2S,4R)-1-(3-(aminomethyl)cyclohexane-1-carbonyl)-2-methylpiperidin-4-yl)-5-cyclopropylisoxazole-3-carboxamide], the IC50 was determined as 5.89 µM.
With `C[C@@H]1C[C@@H](NC(=O)c2cc(C3CC3)on2)CCN1S(=O)(=O)Cc1cccnc1` [compound 374, 5-cyclopropyl-N-((2R,4S)-2-methyl-1-((pyridin-3-ylmethyl)sulfonyl)piperidin-4-yl)isoxazole-3-carboxamide] the figure was over 10 µM; with `O=C(N[C@H]1CCN(C(=O)CC2CCNCC2)[C@H](Cc2ccccc2)C1)c1cc(C2CC2)on1` [compound 375, N-((2R,4S)-2-benzyl-1-(2-(piperidin-4-yl)acetyl)piperidin-4-yl)-5-cyclopropylisoxazole-3-carboxamide], 1.83 µM; with `O=C(N[C@@H]1CCN(C(=O)CC2CCNCC2)[C@@H](Cc2ccccc2)C1)c1cc(C2CC2)on1` [compound 376, N-((2S,4R)-2-benzyl-1-(2-(piperidin-4-yl)acetyl)piperidin-4-yl)-5-cyclopropylisoxazole-3-carboxamide], 1.32 µM.
The result for `C[C@H]1C[C@H](NC(=O)c2cc(C3CC3)on2)CCN1S(=O)(=O)c1ccccc1` [compound 379, 5-cyclopropyl-N-((2S,4R)-2-methyl-1-(phenylsulfonyl)piperidin-4-yl)isoxazole-3-carboxamide] reads 3.35 µM; that for `C[C@H]1C[C@H](NC(=O)c2cc(C3CC3)on2)CCN1S(=O)(=O)c1cccc(C#N)c1` [compound 380, N-((2S,4R)-1-((3-cyanophenyl)sulfonyl)-2-methylpiperidin-4-yl)-5-cyclopropylisoxazole-3-carboxamide], 0.323 µM; that for `N[C@H]1CC[C@H](C(=O)N2CC[C@@H](NC(=O)c3cc(C4CC4)on3)[C@H](CO)C2)CC1` [compound 382, N-((3R,4R)-1-((1r,4R)-4-aminocyclohexane-1-carbonyl)-3-(hydroxymethyl)piperidin-4-yl)-5-cyclopropylisoxazole-3-carboxamide], 2.54 µM.
The result for `O=C(N[C@@H]1CCN(C(=O)CC2CCNCC2)C[C@H]1CO)c1cc(C2CC2)on1` [compound 383, 5-cyclopropyl-N-((3R,4R)-3-(hydroxymethyl)-1-(2-(piperidin-4-yl)acetyl)piperidin-4-yl)isoxazole-3-carboxamide] reads 3.02 µM; that for `N[C@H]1CC[C@H](C(=O)N2CC[C@@H](NC(=O)c3cc(C4CC4)on3)C[C@H]2CO)CC1` [compound 384, N-((2S,4R)-1-((1r,4S)-4-aminocyclohexane-1-carbonyl)-2-(hydroxymethyl)piperidin-4-yl)-5-cyclopropylisoxazole-3-carboxamide], 4.04 µM; that for `C[C@@H]1CN(S(=O)(=O)CCCN)CC[C@H]1NC(=O)c1cc(C2CC2)on1` [compound 388, N-((3R,4R)-1-((3-aminopropyl)sulfonyl)-3-methylpiperidin-4-yl)-5-cyclopropylisoxazole-3-carboxamide], 0.462 µM.
As for `N[C@H]1CC[C@H](C(=O)N2CC[C@@H](NC(=O)c3cc(C4CC4)on3)C[C@@H]2Cc2ccccc2)CC1` [compound 389, N-((2S,4R)-1-((1r,4S)-4-aminocyclohexane-1-carbonyl)-2-benzylpiperidin-4-yl)-5-cyclopropylisoxazole-3-carboxamide], the IC50 is over 10 µM.
As to `C[C@@H]1C[C@@H](NC(=O)c2cc(C3CC3)on2)CCN1C(=O)c1cccc(C(C)(C)N)c1` [compound 392, N-((2R,4S)-1-(3-(2-aminopropan-2-yl)benzoyl)-2-methylpiperidin-4-yl)-5-cyclopropylisoxazole-3-carboxamide], the concentration for half-maximal inhibition (IC50) is over 10 µM.
Take `COCC(C)S(=O)(=O)N1CC[C@H](NC(=O)c2cc(C3CC3)on2)C[C@@H]1C` (stereo partly drawn) [compound 393, 5-cyclopropyl-N-((2S,4S)-1-((1-methoxypropan-2-yl)sulfonyl)-2-methylpiperidin-4-yl)isoxazole-3-carboxamide]: the IC50 was 3.16 µM.
Consider `CC(C)OCCS(=O)(=O)N1CC[C@@H](NC(=O)c2cc(C3CC3)on2)C[C@@H]1C` [compound 394, 5-cyclopropyl-N-((2S,4R)-1-((2-isopropoxyethyl)sulfonyl)-2-methylpiperidin-4-yl)isoxazole-3-carboxamide], for which the IC50 was over 10 µM.
As for `O=C(N[C@@H]1CCN(S(=O)(=O)CCN2CCCC2)[C@@H](Cc2ccccc2)C1)c1cc(C2CC2)on1` [compound 406, N-((2S,4R)-2-benzyl-1-((2-(pyrrolidin-1-yl)ethyl)sulfonyl)piperidin-4-yl)-5-cyclopropylisoxazole-3-carboxamide], the concentration for half-maximal inhibition (IC50) was 3.41 µM.
Regarding `O=C(N[C@H]1CCN(S(=O)(=O)CCN2CCCC2)[C@H](Cc2ccccc2)C1)c1cc(C2CC2)on1` [compound 408, N-((2R,4S)-2-benzyl-1-((2-(pyrrolidin-1-yl)ethyl)sulfonyl)piperidin-4-yl)-5-cyclopropylisoxazole-3-carboxamide], the IC50 stood at 1.15 µM.
For `O=C(N[C@@H]1CCN(S(=O)(=O)CCN2CCOCC2)[C@@H](Cc2ccccc2)C1)c1cc(C2CC2)on1` [compound 409, N-((2S,4R)-2-benzyl-1-((2-morpholinoethyl)sulfonyl)piperidin-4-yl)-5-cyclopropylisoxazole-3-carboxamide], the IC50 was over 10 µM.
The result for `CC(C)CN(C)c1ccc(S(=O)(=O)N2CC[C@@H](NC(=O)c3cc(C4CC4)on3)C[C@@H]2C)cn1` [compound 411, 5-cyclopropyl-N-((2S,4R)-1-((6-(isobutyl(methyl)amino)pyridin-3-yl)sulfonyl)-2-methylpiperidin-4-yl)isoxazole-3-carboxamide] reads over 10 µM; that for `O=C(NC1CC2CCC(C1)N2S(=O)(=O)CC1CCNCC1)c1cc(C2CC2)on1` (stereo not shown) [compound 416, 5-cyclopropyl-N-(8-((piperidin-4-ylmethyl)sulfonyl)-8-azabicyclo[3.2.1]octan-3-yl)isoxazole-3-carboxamide], 0.164 µM; that for `N[C@H]1CC[C@H](C(=O)N2CC[C@H](NC(=O)c3cc(C4CC4)on3)[C@@H](CO)C2)CC1` [compound 421, N-((3S,4S)-1-((1r,4S)-4-aminocyclohexane-1-carbonyl)-3-(hydroxymethyl)piperidin-4-yl)-5-cyclopropylisoxazole-3-carboxamide], 2.51 µM.
`N[C@H]1CC[C@H](C(=O)N2CC[C@H](NC(=O)c3cc(C4CC4)on3)[C@H](CO)C2)CC1` [compound 422, N-((3R,4S)-1-((1r,4R)-4-aminocyclohexane-1-carbonyl)-3-(hydroxymethyl)piperidin-4-yl)-5-cyclopropylisoxazole-3-carboxamide]: the IC50 turned out to be 1.94 µM.
With `C[C@@H]1C[C@@H](NC(=O)c2cc(C3CC3)on2)CCN1C(=O)c1ccc2[nH]cnc2c1` [compound 425, N-((2R,4S)-1-(1H-benzo[d]imidazole-5-carbonyl)-2-methylpiperidin-4-yl)-5-cyclopropylisoxazole-3-carboxamide] the figure was over 10 µM; with `C[C@H]1C[C@H](NC(=O)c2cc(C3CC3)on2)CCN1C(=O)c1ccc2[nH]cnc2c1` [compound 426, N-((2S,4R)-1-(1H-benzo[d]imidazole-5-carbonyl)-2-methylpiperidin-4-yl)-5-cyclopropylisoxazole-3-carboxamide], over 10 µM.
Turning to `N[C@H]1CC[C@@H](C(=O)N2[C@@H]3CC[C@H]2C[C@@H](NC(=O)c2cc(C4CC4)on2)C3)CC1` [compound 429, N-((1R,3R,5S)-8-((1s,4S)-4-aminocyclohexane-1-carbonyl)-8-azabicyclo[3.2.1]octan-3-yl)-5-cyclopropylisoxazole-3-carboxamide], the IC50 came out at 0.351 µM.
Consider `NCCCS(=O)(=O)N1CCC(NC(=O)c2cc(C3CC3)on2)CC12CCC2` (stereo not shown) [compound 445, N-(5-((3-aminopropyl)sulfonyl)-5-azaspiro[3.5]nonan-8-yl)-5-cyclopropylisoxazole-3-carboxamide], for which the half-maximal inhibitory concentration (IC50) came out at 0.13 µM.
The result for `CNc1ccc(S(=O)(=O)N2CC[C@H](NC(=O)c3cc(C4CC4)on3)C[C@H]2C)cn1` [compound 447, 5-cyclopropyl-N-((2R,4S)-2-methyl-1-((6-(methylamino)pyridin-3-yl)sulfonyl)piperidin-4-yl)isoxazole-3-carboxamide] reads over 10 µM; that for `CNc1ccc(S(=O)(=O)N2CC[C@@H](NC(=O)c3cc(C4CC4)on3)C[C@@H]2C)cn1` [compound 448, 5-cyclopropyl-N-((2S,4R)-2-methyl-1-((6-(methylamino)pyridin-3-yl)sulfonyl)piperidin-4-yl)isoxazole-3-carboxamide], over 10 µM.
Consider `CC(C)CNc1ccc(S(=O)(=O)N2CC[C@H](NC(=O)c3cc(C4CC4)on3)C[C@H]2C)cn1` [compound 451, 5-cyclopropyl-N-((2R,4S)-1-((6-(isobutylamino)pyridin-3-yl)sulfonyl)-2-methylpiperidin-4-yl)isoxazole-3-carboxamide], for which the IC50 is over 10 µM.
The result for `CC(C)CNc1ccc(S(=O)(=O)N2CC[C@@H](NC(=O)c3cc(C4CC4)on3)C[C@@H]2C)cn1` [compound 452, 5-cyclopropyl-N-((2S,4R)-1-((6-(isobutylamino)pyridin-3-yl)sulfonyl)-2-methylpiperidin-4-yl)isoxazole-3-carboxamide] reads over 10 µM.
Regarding `COCCNc1ccc(S(=O)(=O)N2CC[C@H](NC(=O)c3cc(C4CC4)on3)C[C@H]2C)cn1` [compound 456, 5-cyclopropyl-N-((2R,4S)-1-((6-((2-methoxyethyl)amino)pyridin-3-yl)sulfonyl)-2-methylpiperidin-4-yl)isoxazole-3-carboxamide], the half-maximal inhibitory concentration (IC50) was over 10 µM.
Turning to `C[C@H]1C[C@H](NC(=O)c2cc(C3CC3)on2)CCN1S(=O)(=O)c1ccc(N(C)CCN)nc1` [compound 462, N-((2S,4R)-1-((6-((2-aminoethyl)(methyl)amino)pyridin-3-yl)sulfonyl)-2-methylpiperidin-4-yl)-5-cyclopropylisoxazole-3-carboxamide], the IC50 came out at 0.305 µM.

The values are drawn from patent publication US10577363B2, “Substituted piperidine compounds” (EPIZYME, INC., priority 2014, dated 2020).
